What was measured:
[1] = biological target: T1, human sodium glucose cotransporter 2 (Homo sapiens, UniProt P31639); test: SGLT-2 assay: 14C-AMG uptake in CHO-hSGLT2 or HEK293-hSGLT2 cells; type: cell-based; conditions: n = 1-4, hSGLT2-transfected cells, read-out: SGLT2 IC50 nM (n = 1-4)
T1 construct: expressed in transfected cells; host or cells: CHO-K1 (ATCC CCL-61) or HEK293 (ATCC CRL-1573), stably transfected with pZeoSV expression vector
T1 sequence (P31639 1-672): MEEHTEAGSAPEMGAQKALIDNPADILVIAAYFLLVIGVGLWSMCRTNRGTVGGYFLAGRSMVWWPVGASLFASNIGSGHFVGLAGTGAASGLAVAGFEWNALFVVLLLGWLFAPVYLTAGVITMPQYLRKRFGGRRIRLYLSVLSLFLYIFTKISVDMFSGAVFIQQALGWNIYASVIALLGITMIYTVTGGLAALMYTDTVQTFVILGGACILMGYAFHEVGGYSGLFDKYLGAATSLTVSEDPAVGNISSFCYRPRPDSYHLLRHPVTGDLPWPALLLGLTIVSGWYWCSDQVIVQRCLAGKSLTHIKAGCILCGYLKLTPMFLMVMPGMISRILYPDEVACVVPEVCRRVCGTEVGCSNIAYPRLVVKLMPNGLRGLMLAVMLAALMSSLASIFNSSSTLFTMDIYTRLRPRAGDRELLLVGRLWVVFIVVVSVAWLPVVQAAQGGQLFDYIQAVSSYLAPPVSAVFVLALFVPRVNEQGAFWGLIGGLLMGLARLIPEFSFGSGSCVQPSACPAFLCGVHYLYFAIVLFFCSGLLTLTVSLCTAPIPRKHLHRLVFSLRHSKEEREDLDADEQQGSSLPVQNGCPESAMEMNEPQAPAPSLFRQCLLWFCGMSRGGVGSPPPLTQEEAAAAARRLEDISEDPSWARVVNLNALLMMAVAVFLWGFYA
Experimental: These cell lines transport 14 C-labelled alpha-methyl-glucopyranoside (14 C-AMG, Amersham) into the interior of the cell in sodium-dependent manner.
The SGLT-2 assay is carried out as follows: CHO-hSGLT2 cells are cultivated in Ham's F12 Medium (BioWhittaker) with 10% foetal calf serum and 250 μg/mL zeocin (Invitrogen), and HEK293-hSGLT2 cells are cultivated in DMEM medium with 10% foetal calf serum and 250 μg/mL zeocin (Invitrogen). The cells are detached from the culture flasks by washing twice with PBS and subsequently treating with trypsin/EDTA. After the addition of cell culture medium the cells are centrifuged, resuspended in culture medium and counted in a Casy cell counter. Then 40,000 cells per well are seeded into a white, 96-well plate coated with poly-D-Iysine and incubated overnight at 37° C., 5% CO2. The cells are washenwice with 250 μl of assay buffer (Hanks Balanced Salt Solution, 137 mM NaCl, 5.4 mM KCl, 2.8 mM CaCl2, 1.2 mM MgSO4 and 10 mM HEPES (pH 7.4), 50 μg/mL of gentamycin). 250 μl of assay buffer and 5 μl of test compound are then added to each well and the plate is incubated for a further 15 minutes in the incubator. 5 μl of 10% DMSO are used as the negative control. The reaction is started by adding 5 μl of 14 C-AMG (0.05 μCi) to each well. After 2 hours' incubation at 37° C., 5% CO2, the cells are washed again with 250 μl of PBS (200C) and then lysed by the addition of 25 μl of 0.1 N NaOH (5 min. at 37° C.). 200 μl of MicroScint20 (Packard) are added to each well and incubation is continued for a further 20 min at 37° C. After this incubation the radioactivity of the 14 C-AMG absorbed is measured in a Topcount (Packard) using a 14 C scintillation program.

human SGLT1 = biological target: T2, human SGLT1 (Homo sapiens, UniProt P13866); test: hSGLT1 assay: analogous [14C]-AMG uptake in CHO-K1 or HEK293 cells expressing hSGLT1; type: cell-based; conditions: n = 1-4, hSGLT1-transfected cells
T2 construct: expressed in transfected cells; host or cells: CHO-K1 or HEK293 cells
T2 sequence (P13866 1-664): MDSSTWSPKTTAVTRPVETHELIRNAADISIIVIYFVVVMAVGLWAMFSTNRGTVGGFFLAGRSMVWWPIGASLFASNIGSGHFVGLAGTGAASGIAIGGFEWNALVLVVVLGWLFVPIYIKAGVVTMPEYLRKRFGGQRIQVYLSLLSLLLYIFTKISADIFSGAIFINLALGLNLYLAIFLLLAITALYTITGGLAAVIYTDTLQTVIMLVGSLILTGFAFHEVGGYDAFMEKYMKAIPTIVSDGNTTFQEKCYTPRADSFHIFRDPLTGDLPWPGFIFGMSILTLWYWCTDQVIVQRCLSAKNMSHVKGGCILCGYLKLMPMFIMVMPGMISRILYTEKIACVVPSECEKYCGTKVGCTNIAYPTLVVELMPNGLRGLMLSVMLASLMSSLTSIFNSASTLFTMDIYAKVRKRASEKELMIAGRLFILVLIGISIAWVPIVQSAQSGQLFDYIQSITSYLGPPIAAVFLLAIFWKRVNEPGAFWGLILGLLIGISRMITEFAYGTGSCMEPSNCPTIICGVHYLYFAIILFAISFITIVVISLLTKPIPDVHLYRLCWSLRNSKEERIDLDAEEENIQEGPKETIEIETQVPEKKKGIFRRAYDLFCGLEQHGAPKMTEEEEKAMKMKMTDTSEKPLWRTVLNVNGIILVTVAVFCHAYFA
Experimental: To determine human SGLT1 inhibitory activity, an analogous test was set up in which the cDNA for hSGLTI (Genbank Ace. No. NM000343) instead of hSGLT2 cDNA is expressed in CHO-K1 or HEK293 cells. The uptake assay buffer in the case of the hSGLT1 assay contains 10 mM HEPES, 5 mM Tris, 140 mM NaCl, 2 mM KCl, 1 mM CaCl2, and 1 mM MgCl2, pH 7.4 containing 0.5 mM of α-methyl-D-glucopyranoside (AMG), 10 μM of [^14C]-α-methyl-D-glucopyranoside and different inhibitor concentrations.

SMILES | IC50 [1] [nM] | IC50 (human SGLT1) [nM]
CCOc1ccc(Cc2cc([C@@H]3O[C@H](CSc4ncccn4)[C@@H](O)[C@H](O)[C@H]3O)ccc2Cl)cc1 [Example 8, (2S,3R,4R,5S,6S)-2-[4-Chloro-3-(4-ethoxy-benzyl)-phenyl]-6-(pyrimidin-2-ylsulfanylmethyl)-tetrahydro-pyran-3,4,5-triol] | 85 | 
CCOc1ccc(Cc2cc([C@@H]3O[C@H](CSc4nnnn4C)[C@@H](O)[C@H](O)[C@H]3O)ccc2Cl)cc1 [Example 10, (2S,3R,4R,5S,6S)-2-[4-Chloro-3-(4-ethoxy-benzyl)-phenyl]-6-(1-methyl-1H-tetrazol-5-ylsulfanylmethyl)-tetrahydro-pyran-3,4,5-triol] | 20 | < 1000
CCOc1ccc(Cc2cc([C@@H]3O[C@H](CSc4cccs4)[C@@H](O)[C@H](O)[C@H]3O)ccc2Cl)cc1 [Example 11, (2S,3R,4R,5S,6S)-2-[4-Chloro-3-(4-ethoxy-benzyl)-phenyl]-6-(thiophen-2-ylsulfanylmethyl)-tetrahydro-pyran-3,4,5-triol] | 60 | < 1000
CCOc1ccc(Cc2cc([C@@H]3O[C@H](CSc4nc5ccccc5[nH]4)[C@@H](O)[C@H](O)[C@H]3O)ccc2Cl)cc1 [Example 15, (2S,3S,4R,5R,6S)-2-(1H-Benzoimidazol-2-ylsulfanylmethyl)-6-[4-chloro-3-(4-ethoxy-benzyl)-phenyl]-tetrahydro-pyran-3,4,5-triol] | 65 | 
CCOc1ccc(Cc2cc([C@@H]3O[C@H](CSc4ccccc4CO)[C@@H](O)[C@H](O)[C@H]3O)ccc2Cl)cc1 [Example 23, (2S,3R,4R,5S,6S)-2-[4-Chloro-3-(4-ethoxy-benzyl)-phenyl]-6-(2-hydroxymethyl-phenylsulfanylmethyl)-tetrahydro-pyran-3,4,5-triol] | 36 | 
CCOc1ccc(Cc2cc([C@@H]3O[C@H](CSc4ccccc4C(N)=O)[C@@H](O)[C@H](O)[C@H]3O)ccc2Cl)cc1 [Example 24, 2-{(2S,3S,4R,5R,6S)-6-[4-Chloro-3-(4-ethoxy-benzyl)-phenyl]-3,4,5-trihydroxy-tetrahydro-pyran-2-ylmethylsulfanyl}-benzamide] | 57 | 
CCOc1ccc(Cc2cc([C@@H]3O[C@H](CSc4cc(NC(C)=O)ccc4F)[C@@H](O)[C@H](O)[C@H]3O)ccc2Cl)cc1 [Example 25, N-(3-{(2S,3S,4R,5R,6S)-6-[4-Chloro-3-(4-ethoxy-benzyl)-phenyl]-3,4,5-trihydroxy-tetrahydro-pyran-2-ylmethylsulfanyl}-4-fluoro-phenyl)-acetamide] | 7 | < 50
CCOc1ccc(Cc2cc([C@@H]3O[C@H](CSc4cc(C(N)=O)ccc4F)[C@@H](O)[C@H](O)[C@H]3O)ccc2Cl)cc1 [Example 26] | 12 | < 50
CCOc1ccc(Cc2cc([C@@H]3O[C@H](CSc4cc(C(=O)NC)ccc4F)[C@@H](O)[C@H](O)[C@H]3O)ccc2Cl)cc1 [Example 27, 3-{(2S,3S,4R,5R,6S)-6-[4-Chloro-3-(4-ethoxy-benzyl)-phenyl]-3,4,5-trihydroxy-tetrahydro-pyran-2-ylmethylsulfanyl}-4-fluoro-N-methyl-benzamide] | 6 | < 50
CCOc1ccc(Cc2cc([C@@H]3O[C@H](CSc4cc(C(=O)N5CCCC5)ccc4F)[C@@H](O)[C@H](O)[C@H]3O)ccc2Cl)cc1 [Example 36, (3-{(2S,3S,4R,6R,6S)-6-[4-Chloro-3-(4-ethoxy-benzyl)-phenyl]-3,4,5-trihydroxy-tetrahydro-pyran-2-ylmethylsulfanyl}-4-fluoro-phenyl)-pyrrolidin-1-yl-methanone] | 6 | 
CCOc1ccc(Cc2cc([C@@H]3O[C@H](CSc4ccc(NC(C)=O)cc4)[C@@H](O)[C@H](O)[C@H]3O)ccc2Cl)cc1 [Example 61, N-(4-{(2S,3S,4R,6R,6S)-6-[4-Chloro-3-(4-ethoxy-benzyl)-phenyl]-3,4,6-trihydroxy-tetrahydro-pyran-2-ylmethylsulfanyl}-phenyl)-acetamide] | 28 | 
CCOc1ccc(Cc2cc([C@@H]3O[C@H](CSc4cccc(NC(=O)CC)c4)[C@@H](O)[C@H](O)[C@H]3O)ccc2Cl)cc1 [Example 67, N-(3-{(2S,3S,4R,5R,6S)-6-[4-Chloro-3-(4-ethoxy-benzyl)-phenyl]-3,4,5-trihydroxy-tetrahydro-pyran-2-ylmethylsulfanyl}-phenyl)-propionamide] | 9 | 
CCOc1ccc(Cc2cc([C@@H]3O[C@H](CSc4cccc(NC(=O)OC)c4)[C@@H](O)[C@H](O)[C@H]3O)ccc2Cl)cc1 [Example 69] | 28 | 
CCOc1ccc(Cc2cc([C@@H]3O[C@H](CSc4cccc(CO)c4)[C@@H](O)[C@H](O)[C@H]3O)ccc2Cl)cc1 [Example 77, (2S,3R,4R,5S,6S)-2-[4-Chloro-3-(4-ethoxy-benzyl)-phenyl]-6-(3-hydroxymethyl-phenylsulfanylmethyl)-tetrahydro-pyran-3,4,5-triol] | 61 | 
CCOc1ccc(Cc2cc([C@@H]3O[C@H](COc4cccc(C(=O)NC)c4)[C@@H](O)[C@H](O)[C@H]3O)ccc2Cl)cc1 [Example 83, 3-{(2R,3S,4R,5R,6S)-6-[4-Chloro-3-(4-ethoxy-benzyl)-phenyl]-3,4,5-trihydroxy-tetrahydro-pyran-2-ylmethoxy}-N-methyl-benzamide] | 72 | 
CCOc1ccc(Cc2cc([C@@H]3O[C@H](COc4cccc(C(=O)N5CCCC5)c4)[C@@H](O)[C@H](O)[C@H]3O)ccc2Cl)cc1 [Example 84, (3-{(2R,3S,4R,5R,6S)-6-[4-Chloro-3-(4-ethoxy-benzyl)-phenyl]-3,4,5-trihydroxy-tetrahydro-pyran-2-ylmethoxy}-phenyl)-pyrrolidin-1-yl-methanone] | 11 | 
CCOc1ccc(Cc2cc([C@@H]3O[C@H](COc4cccc(C(=O)N5CCC5)c4)[C@@H](O)[C@H](O)[C@H]3O)ccc2Cl)cc1 [Example 85] | 9 | 

— US20110230403A1, “GLYCOSIDE DERIVATIVES AND USES THEREOF” (NOVARTIS AG, priority 2008, published 2011)
